The values below come from patent US9226503B2, “Composition and method for attraction of emerald ash borer Agrilus planipennis fairmaire (coleoptera: buprestidae)” (Her Majesty the Queen in Right of Canada, as represented by …, priority 2011, dated 2016).

For the test, the system named is A. planipennis. Briefly: Field trapping experiment 1 (2008), purple prism traps, Ontario. Type of test: in vivo, Agrilus planipennis. Here is the method:
Field trapping. Three trapping experiments were carried out in green ash plantations (F. pennsylvanica Marsch) with low-to-moderate A. planipennis populations about 40 km southeast of Sarnia, Ontario (42° 58′ 0 N, 82° 24′ 0 W) in 2008, 2009 and 2010. Trees at these sites were generally healthy in appearance with low or no signs of decline, and only a small number of trees had obvious signs/symptoms of infestation by A. planipennis. In Ontario sites, trees were 20-25 years old, 4-6 m tall, 10-15 cm in diameter, and spaced about 2 m apart within a row and 2.5 m between rows. In 2010, the trapping experiment was replicated at four sites in Michigan, USA, in addition to the sites in Ontario. […] Traps were checked every 2 weeks and A. planipennis were collected, counted and sexed.
Experiment 1, conducted in Ontario in 2008, was designed to test for attractiveness of (3Z)-lactone (Bartelt et al. 2007), alone and in combination with two types of host volatiles: bark sesquiterpenes (Crook et al. 2008) and a binary blend of green leaf volatiles ((3Z)-hexenol and (2E)-hexenol) (Poland et al. 2005, de Groot et al. 2008). […] We selected Phoebe oil because it contained two additional sesquiterpenes that had been detected in ash trees and appeared to be more attractive than Manuka oil (Crook et al. 2008) and the (3Z)-hexenol and (2E)-hexenol combination based on results from de Groot et al. (2008). […]

As to `O=C1C/C=C\CCCCCCCCO1` [(3Z)-lactone, (3Z)-dodecen-12-olide], the “trap captures compared to unbaited controls” value is reported as “not significantly attractive”.
